Reference: patent publication US20210353648A1, “GRAPIPRANT UNIT DOSAGE FORMS” (Arrys Therapeutics, Inc., priority 2018, published 2021)
Where two headings read alike, the source gives them in different places.

Columns and labels:
[1] = Phase 1 single ascending dose study of grapiprant OPC: pharmacokinetics; assay type: in vivo, human; conditions: for AUC(0-t) / Cmax / AUC(0-inf) / Tmax / half-life: human, oral, serum
Protocol: Eligible subjects were to be enrolled into 8 sequential cohorts, corresponding to the planned dose levels of 1 mg, 3 mg, 10 mg, 30 mg, 100 mg, 300 mg, 600 mg, and 1000 mg. […] After determining a maximum tolerated dose (MTD), or after completing the highest dose cohort if a MTD was not determined, Cohort 11 would be enrolled to increase the number of subjects evaluated at the MTD (or the highest dose).
In each dosing period, subjects were confined to the Clinical Research Unit (CRU) for approximately 60 hours (from approximately 36 hours predose through 24 hours postdose), and were instructed to return to the study site at 48 hours postdose for collection of blood samples for safety and pharmacokinetic evaluations. Subjects had triplicate ECG measurements made at select time-points on Day 0 (to provide a time-matched baseline) and through 24 hours postdose. Continuous cardiac monitoring by telemetry was performed for 12 hours postdose (or up to 24 hours, if warranted, based on the pharmacokinetic data). Creatine phosphokinase (CPK; total CPK and CPK-MB isoenzyme) and troponin I levels were monitored predose and at 12 and 24 hours postdose. In each dosing period, blood samples were collected predose and at 0.5, 1, 1.5, 2, 2.5, 3, 4, 6, 8, 12, 16, 24, and 48 hours postdose for pharmacokinetic evaluation. Fecal occult blood was monitored predose and through 48 hours postdose. Urine was collected through 24 hours postdose for exploratory biotransformation analyses. Since grapiprant may be a substrate of efflux transporters, genotyping for P-gp, an efflux transporter, was also planned for this study.
Pharmacokinetics: The maximum observed serum concentration (Cmax) of grapiprant was estimated directly from raw serum concentration-time data with Tmax defined as the time of the first occurrence of Cmax. The apparent terminal elimination rate constant (kel) was estimated using least-squares regression analysis of the serum concentration-time data obtained during the terminal log-linear phase. The apparent terminal half-life (T½) was calculated as In 2/kel. Areas under the serum concentration-time curve from time 0 to the last time (Tlast) with a quantifiable concentration [AUC(Tlast)] were estimated using linear/log trapezoidal approximation. Areas under the serum concentration-time curve from time Tlast to infinity [AUC(Tlast-inf)] were estimated as Cpest/kel, where Cpest represented the estimated concentration at time Tlast based on the aforementioned regression analysis. Areas under the serum concentration-time curve from time 0 to infinity [AUC(inf)] were estimated as the sum of AUC(Tlast) and AUC(Tlast-inf). […] Individual serum concentrations of grapiprant were summarized in tabular and graphical form. Concentrations that were determined to be below the lower limit of quantification were assumed to be equal to zero for the pharmacokinetic analyses and mean concentration-time plots.
The 600 mg dose was studied in 2 separate cohorts. The second of these two cohorts was conducted to confirm safety assessments at this dose strength. For the pharmacokinetic analysis, pharmacokinetic parameters of both cohorts were pooled together and analyzed as a single group.

[2] = Phase 1 multiple ascending dose study of grapiprant tablets: safety and tolerability
Text: Study Design: This was a randomized, investigator-blind, subject-blind, sponsor-open, placebo controlled, sequential parallel-group, multiple ascending dose study of grapiprant tablets.
Safety Evaluations: Safety evaluations included clinical monitoring, adverse events (AEs), clinical laboratory tests including renal function tests, bone markers (serum bone-specific alkaline phosphatase and osteocalcin and urinary N-terminal telopeptide of type I collagen), vital signs (heart rate and blood pressure), and 12-lead ECGs.
Safety Analyses: Safety data are presented in tabular and/or graphical format and summarized descriptively.
Bone markers were analyzed as percentage change from baseline and the influence of potential outliers was assessed.

[3] = single 1 mg dose as OPC, fasted, healthy adults, mean
[4] = single 3 mg dose as OPC, fasted, healthy adults, mean
[5] = single 10 mg dose as OPC, fasted, healthy adults, mean
[6] = single 30 mg dose as OPC, fasted, healthy adults, mean
[7] = single 100 mg dose as OPC, fasted, healthy adults, mean
[8] = single 300 mg dose as OPC, fasted, healthy adults, mean
[9] = single 600 mg dose as OPC, fasted, healthy adults, mean
[10] = single 1000 mg dose as OPC, fasted, healthy adults, mean
[11] = single 1500 mg dose as OPC, fasted, healthy adults, mean
[12] = single 2000 mg dose as OPC, fasted, healthy adults, mean

CCc1nc2c(C)nc(C)cc2n1-c1ccc(CCNC(=O)NS(=O)(=O)c2ccc(C)cc2)cc1 [Grapiprant, N-((4-(2-ethyl-4,6-dimethyl-1H-imidazo[4,5-c]pyridin-1-yl)phenethyl)carbamoyl)-4-methylbenzenesulfonamide]
increase of mean serum exposure parameters with dose ([1]; between the 100 mg and 600 mg dose levels, OPC, fasted): greater than dose-proportional increases
AUC(0-t) [1, 3]: 59.1 ng·h/mL
Cmax [1, 3]: 6.59 ng/mL
AUC(0-inf) [1, 4]: 260 ng·h/mL
AUC(0-t) [1, 4]: 246 ng·h/mL
Cmax [1, 4]: 23.1 ng/mL
AUC(0-inf) [1, 5]: 917 ng·h/mL
AUC(0-t) [1, 5]: 901 ng·h/mL
Cmax [1, 5]: 110 ng/mL
AUC(0-inf) [1, 6]: 2150 ng·h/mL
AUC(0-t) [1, 6]: 2120 ng·h/mL
Cmax [1, 6]: 262 ng/mL
AUC(0-inf) [1, 7]: 7220 ng·h/mL
AUC(0-t) [1, 7]: 7170 ng·h/mL
Cmax [1, 7]: 1440 ng/mL
AUC(0-inf) [1, 8]: 31300 ng·h/mL
AUC(0-t) [1, 8]: 31200 ng·h/mL
Cmax [1, 8]: 12000 ng/mL
AUC(0-inf) [1, 9]: 92500 ng·h/mL
AUC(0-t) [1, 9]: 92200 ng·h/mL
Cmax [1, 9]: 45000 ng/mL
AUC(0-inf) [1, 10]: 175000 ng·h/mL
AUC(0-t) [1, 10]: 174000 ng·h/mL
Cmax [1, 10]: 64300 ng/mL
AUC(0-inf) [1, 11]: 242000 ng·h/mL
AUC(0-t) [1, 11]: 242000 ng·h/mL
Cmax [1, 11]: 83800 ng/mL
AUC(0-inf) [1, 12]: 479000 ng·h/mL
AUC(0-t) [1, 12]: 478000 ng·h/mL
Cmax [1, 12]: 134000 ng/mL
Tmax ([1]; 1 mg, single 1 mg dose as OPC, fasted, healthy adults, median, read-out: Tmax): 2.5 h
half-life ([1]; 3 mg, single 3 mg dose as OPC, fasted, healthy adults, mean, read-out: T½ (converted)): 5.34 h
Tmax ([1]; 3 mg, single 3 mg dose as OPC, fasted, healthy adults, median, read-out: Tmax): 3 h
half-life ([1]; 10 mg, single 10 mg dose as OPC, fasted, healthy adults, mean, read-out: T½ (converted)): 5.1 h
Tmax ([1]; 10 mg, single 10 mg dose as OPC, fasted, healthy adults, median, read-out: Tmax): 2 h
half-life ([1]; 30 mg, cohorts with clear bi-exponential decline (30 mg and above), read-out: mean terminal phase T1/2): 6.14 to 9.41 h
half-life ([1]; 30 mg, single 30 mg dose as OPC, fasted, healthy adults, mean, read-out: T½ (converted)): 6.14 h
Tmax ([1]; 30 mg, single 30 mg dose as OPC, fasted, healthy adults, median, read-out: Tmax): 1 h
Tmax ([1]; 100 mg, doses of 100 mg and above, OPC, fasted, read-out: individual Tmax values): 0.5 to 1 h
half-life ([1]; 100 mg, single 100 mg dose as OPC, fasted, healthy adults, mean, read-out: T½ (converted)): 6.91 h
Tmax ([1]; 100 mg, single 100 mg dose as OPC, fasted, healthy adults, median, read-out: Tmax): 0.75 h
half-life ([1]; 300 mg, single 300 mg dose as OPC, fasted, healthy adults, mean, read-out: T½ (converted)): 7.98 h
Tmax ([1]; 300 mg, single 300 mg dose as OPC, fasted, healthy adults, median, read-out: Tmax): 0.75 h
half-life ([1]; 600 mg, single 600 mg dose as OPC, fasted, healthy adults, mean, read-out: T½ (converted)): 8.03 h
Tmax ([1]; 600 mg, single 600 mg dose as OPC, fasted, healthy adults, median, read-out: Tmax): 0.5 h
half-life ([1]; 1000 mg, single 1000 mg dose as OPC, fasted, healthy adults, mean, read-out: T½ (converted)): 9.41 h
Tmax ([1]; 1000 mg, single 1000 mg dose as OPC, fasted, healthy adults, median, read-out: Tmax): 1 h
half-life ([1]; 1500 mg, single 1500 mg dose as OPC, fasted, healthy adults, mean, read-out: T½ (converted)): 8.13 h
Tmax ([1]; 1500 mg, single 1500 mg dose as OPC, fasted, healthy adults, median, read-out: Tmax): 0.75 h
half-life ([1]; 2000 mg, single 2000 mg dose as OPC, fasted, healthy adults, mean, read-out: T½ (converted)): 8.25 h
Tmax ([1]; 2000 mg, single 2000 mg dose as OPC, fasted, healthy adults, median, read-out: Tmax): 1 h
Tmax ([1]; across the dose groups, 1 mg to 2000 mg OPC, fasted, read-out: median Tmax estimates): 0.5 to 3 h
half-life ([1]; over the range of doses studied, OPC, fasted, read-out: mean terminal phase T1/2): 5.1 to 9.41 h
serum concentration-time profile ([1]; single oral dose of OPC formulation, about 1 mg to 2000 mg): rapid absorption followed by a bi-exponential decline in serum concentration
AEs reported ([2]; 50 mg BID, healthy subjects): 7 AEs
subjects reporting AEs ([2]; 50 mg BID, healthy subjects (9 treated)): 4 subjects
AEs reported ([2]; 150 mg BID, healthy subjects): 23 AEs
subjects reporting AEs ([2]; 150 mg BID, healthy subjects (9 treated)): 7 subjects
AEs reported ([2]; 250 mg BID, elderly subjects): 44 AEs
subjects reporting AEs ([2]; 250 mg BID, elderly subjects (15 treated)): 14 subjects
tolerability ([2]; 250 mg BID, elderly subjects with mild renal impairment): well tolerated
AEs reported ([2]; 300 mg BID, healthy subjects): 13 AEs
subjects reporting AEs ([2]; 300 mg BID, healthy subjects (9 treated)): 6 subjects
deaths ([2]; all cohorts): No deaths
severity of most treatment-emergent AEs ([2]; all cohorts): mild
vital signs and ECGs ([2]; all cohorts): no clinically significant mean changes from baseline
systolic blood pressure ([2]; elderly subjects with mild renal impairment, 250 mg BID, versus placebo group): small increase from baseline
laboratory safety tests, including renal function tests ([2]; grapiprant versus placebo): no clinically significant findings
systolic blood pressure ([2]; healthy subjects, doses up to 300 mg BID, triplicate BP monitoring): no difference between changes from baseline compared with placebo
tolerability ([2]; multiple-dose administration for 14 days, doses up to 300 mg BID, healthy adult subjects): well tolerated
withdrawal due to AE ([2]; one elderly subject, 250 mg BID): non-drug related AE of ventricular tachycardia
serious AEs considered related to the study medication ([2]; one healthy subject, 150 mg BID): decreased hemoglobin, decreased hematocrit, and gastrointestinal hemorrhage
